Source: patent US20240400560A1, “BICYCLIC HETEROCYCLIC DERIVATIVE HAVING VIRAL GROWTH INHIBITORY ACTIVITY AND PHARMACEUTICAL COMPOSITION CONTAINING SAME” (Shionogi & Co., Ltd., priority 2021, published 2024)
Read-outs that look alike come from different tables or passages of the source.

Key:
[1] = system: SARS-CoV-2; test: Inhibitory activity of cytopathic effect (CPE) in HEK293T/ACE2-TMPRSS2 cells; format: cell-based; conditions: Severe acute respiratory syndrome coronavirus 2, HEK-293T, 72 h
[2] = target: SARS-CoV-2 3CL protease (Severe acute respiratory syndrome coronavirus 2, UniProt P0DTD1); test: Inhibitory activity test against SARS-CoV-2 3CL proteases; format: biochemical
[3] = HEK293T/ACE2-TMPRSS2 cells, cultured 3 days, CellTiter-Glo 2.0 luminescence, read-out: EC50 (50% SARS-CoV-2 infected cell death inhibitory concentration)
[4] = read-out: IC50 (50% SARS-CoV-2 3CL protease inhibitory concentration)
[5] = 50% SARS-CoV-2 infected cell death inhibitory concentration, HEK293T/ACE2-TMPRSS2 cells, CellTiter-Glo 2.0 after 3 days culture, read-out: EC50
[6] = IC50 (50% SARS-CoV-2 3CL protease inhibitory concentration)

Row | SMILES | EC50 [1, 3] [µM] | IC50 [2, 4] [µM] | other results
1 | Cn1cnc(Cn2c(=O)c3c4nc[nH]c4c(-c4cc(C#N)ccc4Cl)cc3n(Cc3cc(F)c(F)c(F)c3)c2=O)n1 [Compound I-0712] | 0.1 to 1 | 0.1 to 1 | 
2 | COc1nc2c(=O)n(Cc3ncn(C)n3)c(=O)n(Cc3cc(Cl)ccc3Cl)c2cc1-c1cc(C#N)ccc1Cl [Compound I-0713] | 0.1 to 1 | < 0.1 | 
3 | COc1nc2c(=O)n(Cc3ncn(C)n3)c(=O)n(Cc3cc(Cl)ccc3C)c2cc1-c1cc(C#N)ccc1Cl [Compound I-0717] | < 0.1 | < 0.1 | 
4 | COc1nc2c(=O)n(Cc3ncn(C)n3)c(=O)n(Cc3cc(F)c(F)c(C#N)c3)c2cc1-c1cc(C#N)ccc1Cl [Compound I-0721] | < 0.1 | < 0.1 | 
5 | COc1nc2c(=O)n(Cc3ncn(C)n3)c(=O)n(Cc3cc(C#N)c(F)cc3Cl)c2cc1-c1cc(C#N)ccc1Cl [Compound I-0722] | < 0.1 | < 0.1 | 
6 | COc1nc2c(=O)n(Cc3ncn(C)n3)c(=O)n(Cc3cc(C#N)c(F)cc3C)c2cc1-c1cc(C#N)ccc1Cl [Compound I-0723] | < 0.1 | < 0.1 | 
7 | COc1nc2c(=O)n(Cc3ncn(C)n3)c(=O)n(Cc3ccc(F)c(Cl)c3)c2cc1-c1cc(C#N)ccc1Cl [Compound I-0726] | < 0.1 | < 0.1 | 
8 | Cn1c(-c2cc(C#N)ccc2Cl)cc2c(c1=O)c(=O)n(-c1cnc3cc(F)ccn13)c(=O)n2Cc1cc(F)c(F)c(F)c1 [Compound I-0727] |  | 0.0011 | EC50 [1, 5]: 0.102 µM
9 | COc1nc(N2CCC(F)(F)C2)cc2c1c(=O)n(-c1cnc3cc(F)ccn13)c(=O)n2-c1ccc(F)c(Cl)c1 [Compound I-0728] |  | 0.0051 | EC50 [1, 5]: 0.00765 µM
10 | COc1nc(N2[C@@H]3CC[C@H]2CNC3)cc2c1c(=O)n(-c1cnc3cc(F)ccn13)c(=O)n2-c1ccc(F)c(Cl)c1 [Compound I-0729] |  |  | EC50 ([1]; read-out: EC50 (50% SARS-CoV-2 infected cell death inhibitory concentration)): < 0.1 µM; IC50 [2, 6]: < 0.1 µM
11 | COc1nc(N2CC[C@@H](O)C2)cc2c1c(=O)n(-c1cnc3cc(F)ccn13)c(=O)n2Cc1cc(F)c(F)c(F)c1 [Compound I-0730] | < 0.1 | < 0.1 | 
12 | COc1nc(N2CC[C@@H](OC)C2)cc2c1c(=O)n(-c1cnc3cc(F)ccn13)c(=O)n2Cc1cc(F)c(F)c(F)c1 [Compound I-0731] | < 0.1 | < 0.1 | 
13 | COc1nc(N2CC[C@@H](C#N)C2)cc2c1c(=O)n(-c1cnc3cc(F)ccn13)c(=O)n2Cc1cc(F)c(F)c(F)c1 [Compound I-0732] | < 0.1 | < 0.1 | 
14 | COc1nc(N2CC[C@@H](O)C2)cc2c1c(=O)n(-c1cnc3cc(F)ccn13)c(=O)n2Cc1cc(F)c(F)c(Cl)c1 [Compound I-0734] | < 0.1 | < 0.1 | 
15 | COc1nc(N2CC[C@@H](OC)C2)cc2c1c(=O)n(-c1cnc3cc(F)ccn13)c(=O)n2Cc1cc(F)c(F)c(Cl)c1 [Compound I-0735] | < 0.1 | < 0.1 | 
16 | COc1nc(N2CC[C@@H](C#N)C2)cc2c1c(=O)n(-c1cnc3cc(F)ccn13)c(=O)n2Cc1cc(F)c(F)c(Cl)c1 [Compound I-0736] |  | 0.012 | EC50 [1, 5]: 0.0201 µM
17 | CCn1c(-c2cc(C#N)ccc2Cl)cc2c(c1=O)c(=O)n(-c1cnc3cc(F)ccn13)c(=O)n2Cc1cc(F)c(F)c(F)c1 [Compound I-0739] |  | 0.00098 | EC50 [1, 5]: 0.115 µM
18 | COc1nc(N2CC[C@@H](OC)C2)cc2c1c(=O)n(-c1cnc3cc(F)ccn13)c(=O)n2-c1ccc(F)c(Cl)c1 [Compound I-0740] | < 0.1 | < 0.1 | 
19 | Cn1c(-c2cc(C#N)ccc2Cl)cc2c(c1=O)c(=O)n(-c1cnc3ccc(Cl)cn13)c(=O)n2Cc1cc(F)c(F)c(F)c1 [Compound I-0741] |  | 0.0043 | EC50 [1, 5]: 0.105 µM
20 | COc1nc(N2CC[C@H](OC)C2)cc2c1c(=O)n(-c1cnc3cc(F)ccn13)c(=O)n2-c1ccc(F)c(Cl)c1 [Compound I-0742] | < 0.1 | < 0.1 | 
21 | COc1nc(N2CCOCC2)cc2c1c(=O)n(-c1cnc3cc(F)ccn13)c(=O)n2-c1ccc(F)c(Cl)c1 [Compound I-0743] |  | 0.022 | EC50 [1, 5]: 0.0193 µM
22 | COc1nc(N2CC[C@@H](OC)C2)cc2c1c(=O)n(-c1cncc(Cl)c1)c(=O)n2-c1ccc(F)c(Cl)c1 [Compound I-0744] |  | 0.0014 | EC50 [1, 5]: 0.00694 µM

Row | SMILES | EC50 [1, 3] [µM] | IC50 [2, 4] [µM] | other results
23 | COc1nc(N2CC[C@@H](O)C2)cc2c1c(=O)n(-c1cnc3cc(F)ccn13)c(=O)n2-c1ccc(F)c(Cl)c1 [Compound I-0745] | < 0.1 | < 0.1 | 
24 | COc1nc(N2CC[C@@H](F)C2)cc2c1c(=O)n(-c1cnc3cc(F)ccn13)c(=O)n2-c1ccc(F)c(Cl)c1 [Compound I-0746] |  | 0.0014 | EC50 [1, 5]: 0.0056 µM
25 | COc1nc(N2C[C@@H](F)[C@@H](F)C2)cc2c1c(=O)n(-c1cnc3cc(F)ccn13)c(=O)n2-c1ccc(F)c(Cl)c1 [Compound I-0747] | < 0.1 | < 0.1 | 
26 | COc1nc(N2C[C@H](F)[C@@H](F)C2)cc2c1c(=O)n(-c1cnc3cc(F)ccn13)c(=O)n2-c1ccc(F)c(Cl)c1 [Compound I-0748] | < 0.1 | < 0.1 | 
27 | COc1nc(N2CC[C@H](CO)C2)cc2c1c(=O)n(-c1cnc3cc(F)ccn13)c(=O)n2-c1ccc(F)c(Cl)c1 [Compound I-0749] | < 0.1 | < 0.1 | 
28 | COc1nc(N2CC[C@@H](CO)C2)cc2c1c(=O)n(-c1cnc3cc(F)ccn13)c(=O)n2-c1ccc(F)c(Cl)c1 [Compound I-0750] |  | 0.0061 | EC50 [1, 5]: 0.0259 µM
29 | [2H]C([2H])([2H])O[C@@H]1CCN(c2cc3c(c(OC)n2)c(=O)n(-c2cnc4cc(F)ccn24)c(=O)n3-c2ccc(F)c(Cl)c2)C1 [Compound I-0751] | < 0.1 | < 0.1 | 
30 | COc1nc(N2CCCC2)cc2c1c(=O)n(-c1cnc3cc(F)ccn13)c(=O)n2-c1ccc(F)c(Cl)c1 [Compound I-0752] | < 0.1 | < 0.1 | 
31 | COc1nc(N2CC(O)(C(F)(F)F)C2)cc2c1c(=O)n(-c1cnc3cc(F)ccn13)c(=O)n2-c1ccc(F)c(Cl)c1 [Compound I-0753] |  | 0.021 | EC50 [1, 5]: 0.0357 µM
32 | COc1nc(N2[C@@H]3COC[C@H]2C3)cc2c1c(=O)n(-c1cnc3cc(F)ccn13)c(=O)n2-c1ccc(F)c(Cl)c1 [Compound I-0755] |  |  | EC50 [1]: 0.00706 µM; IC50 [2, 6]: 0.0056 µM
33 | COc1nc(N2C[C@@H]3[C@H](C2)C3(F)F)cc2c1c(=O)n(-c1cnc3cc(F)ccn13)c(=O)n2-c1ccc(F)c(Cl)c1 [Compound I-0759] | < 0.1 | < 0.1 | 
34 | COc1nc(N2CC(C)(OC)C2)cc2c1c(=O)n(-c1cnc3cc(F)ccn13)c(=O)n2-c1ccc(F)c(Cl)c1 [Compound I-0762] | < 0.1 | < 0.1 | 
35 | COc1nc(N2CC[C@@H](OC(F)F)C2)cc2c1c(=O)n(-c1cnc3cc(F)ccn13)c(=O)n2-c1ccc(F)c(Cl)c1 [Compound I-0763] | < 0.1 | < 0.1 | 
36 | [2H]C([2H])([2H])O[C@@H]1CCN(c2cc3c(c(OC)n2)c(=O)n(-c2cnc4cc(F)ccn24)c(=O)n3-c2cc(Cl)c(F)c(OC)c2)C1 [Compound I-0764] | < 0.1 | < 0.1 | 
37 | COc1cc(N2CCCC2)cc2c1c(=O)n(Cc1ncn(C)n1)c(=O)n2Cc1cc(Cl)ccc1Cl [Compound I-0784] | 0.1 to 1 | < 0.1 | 
38 | COc1cc(N2CCCC2)cc2c1c(=O)n(Cc1ncn(C)n1)c(=O)n2Cc1cc(Cl)ccc1Br [Compound I-0786] | 0.1 to 1 | < 0.1 | 
39 | COc1nc(N2CC[C@@H](F)C2)cc2c1c(=O)n(Cc1ncn(C)n1)c(=O)n2-c1ccc(C)c(Cl)c1 [Compound I-0800] | < 0.1 | < 0.1 | 
40 | COc1nc(N2CC[C@@H](F)C2)cc2c1c(=O)n(Cc1ncn(C)n1)c(=O)n2-c1cc(F)c(Cl)c(Cl)c1 [Compound I-0802] |  | 0.024 | EC50 [1, 5]: 0.0112 µM
41 | COc1nc(N2CC[C@@H](F)C2)cc2c1c(=O)n(Cc1ncn(C)n1)c(=O)n2-c1cc(Cl)c(F)c(Cl)c1 [Compound I-0803] |  | 0.032 | EC50 [1, 5]: 0.0176 µM
42 | COc1cc(-n2c(=O)n(Cc3ncn(C)n3)c(=O)c3c(OC)nc(N4CC[C@@H](F)C4)cc32)cc(Cl)c1F [Compound I-0804] | < 0.1 | < 0.1 | 
43 | COc1nc(N2CC[C@@H](F)C2)cc2c1c(=O)n(Cc1ncn(C)n1)c(=O)n2-c1cc(C)c(F)c(Cl)c1 [Compound I-0805] | < 0.1 | < 0.1 | 
